Reference: PubChem BioAssay AID1919010 (Molecular Pharmacology Branch, DTP, NCI, 2023)

Test system: Hs578T complex spheroid growth, percent test/control
Assay: Anticancer human tumor Hs578T cell line growth inhibition [AhR];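 further: luminescent viability signal as a proxy for spheroid growth; spheroids exposed to agents for one week after three days of growth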
Conditions: for IC50: curve of first compound; for viability, T/C: stronger effect = lower value
Summary of the method: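 Complex tumor spheroids co-cultured with HUVEC and human MSC stroma; AhR antagonists tested in combination with standard-of-care and investigational agents. Top concentration at or near clinical Cmax (else 10 microM), half-log dilutions; growth expressed as percent test/control.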

CC[C@@]1(O)C(=O)OCc2c1cc1n(c2=O)Cc2cc3c(CN(C)C)c(O)ccc3nc2-1 + Cc1ccccc1N=Nc1ccc(NC(=O)c2ccnn2C)c(C)c1
IC50 (second compound 0.1 µM): > 100 nM
IC50 (second compound 0.316 µM): > 100 nM
IC50 (second compound 1 µM): > 100 nM
IC50 (second compound 3.16 µM): > 100 nM
IC50 (second compound 10 µM): 76.5 nM
viability, T/C (second compound 0.1 µM, first compound 0.000316 µM): 101%
viability, T/C (second compound 0.1 µM, first compound 0.001 µM): 106%
viability, T/C (second compound 0.1 µM, first compound 0.00316 µM): 89.4%
viability, T/C (second compound 0.1 µM, first compound 0.01 µM): 73.3%
viability, T/C (second compound 0.1 µM, first compound 0.0316 µM): 69.1%
viability, T/C (second compound 0.1 µM, first compound 0.1 µM): 69.2%
viability, T/C (second compound 0.316 µM, first compound 0.000316 µM): 108%
viability, T/C (second compound 0.316 µM, first compound 0.001 µM): 104%
viability, T/C (second compound 0.316 µM, first compound 0.00316 µM): 89.9%
viability, T/C (second compound 0.316 µM, first compound 0.01 µM): 80.7%
viability, T/C (second compound 0.316 µM, first compound 0.0316 µM): 78.3%
viability, T/C (second compound 0.316 µM, first compound 0.1 µM): 68.3%
viability, T/C (second compound 1 µM, first compound 0.000316 µM): 99.2%
viability, T/C (second compound 1 µM, first compound 0.001 µM): 110%
viability, T/C (second compound 1 µM, first compound 0.00316 µM): 96%
viability, T/C (second compound 1 µM, first compound 0.01 µM): 79.8%
viability, T/C (second compound 1 µM, first compound 0.0316 µM): 71.7%
viability, T/C (second compound 1 µM, first compound 0.1 µM): 61.7%
viability, T/C (second compound 3.16 µM, first compound 0.000316 µM): 94.5%
viability, T/C (second compound 3.16 µM, first compound 0.001 µM): 90.8%
viability, T/C (second compound 3.16 µM, first compound 0.00316 µM): 83.1%
viability, T/C (second compound 3.16 µM, first compound 0.01 µM): 66.8%
viability, T/C (second compound 3.16 µM, first compound 0.0316 µM): 63.4%
viability, T/C (second compound 3.16 µM, first compound 0.1 µM): 55.9%
viability, T/C (second compound 10 µM, first compound 0.000316 µM): 65.3%
viability, T/C (second compound 10 µM, first compound 0.001 µM): 61.3%
viability, T/C (second compound 10 µM, first compound 0.00316 µM): 65.6%
viability, T/C (second compound 10 µM, first compound 0.01 µM): 59.6%
viability, T/C (second compound 10 µM, first compound 0.0316 µM): 50.4%
viability, T/C (second compound 10 µM, first compound 0.1 µM): 50.1%

CCc1c2c(nc3ccc(O)cc13)-c1cc3c(c(=O)n1C2)COC(=O)[C@]3(O)CC + Cc1ccccc1N=Nc1ccc(NC(=O)c2ccnn2C)c(C)c1
IC50 (second compound 0.1 µM): 84.6 nM
IC50 (second compound 0.316 µM): 130 nM
IC50 (second compound 1 µM): 68.7 nM
IC50 (second compound 3.16 µM): 39.1 nM
IC50 (second compound 10 µM): 8.73 nM
viability, T/C (second compound 0.1 µM, first compound 0.000949 µM): 77.4%
viability, T/C (second compound 0.1 µM, first compound 0.003 µM): 76.4%
viability, T/C (second compound 0.1 µM, first compound 0.00949 µM): 73.1%
viability, T/C (second compound 0.1 µM, first compound 0.03 µM): 57.9%
viability, T/C (second compound 0.1 µM, first compound 0.0949 µM): 50.8%
viability, T/C (second compound 0.1 µM, first compound 0.3 µM): 31.5%
viability, T/C (second compound 0.316 µM, first compound 0.000949 µM): 91%
viability, T/C (second compound 0.316 µM, first compound 0.003 µM): 78.4%
viability, T/C (second compound 0.316 µM, first compound 0.00949 µM): 72.1%
viability, T/C (second compound 0.316 µM, first compound 0.03 µM): 65.4%
viability, T/C (second compound 0.316 µM, first compound 0.0949 µM): 53%
viability, T/C (second compound 0.316 µM, first compound 0.3 µM): 41.5%
viability, T/C (second compound 1 µM, first compound 0.000949 µM): 72.8%
viability, T/C (second compound 1 µM, first compound 0.003 µM): 69.4%
viability, T/C (second compound 1 µM, first compound 0.00949 µM): 69.1%
viability, T/C (second compound 1 µM, first compound 0.03 µM): 60.9%
viability, T/C (second compound 1 µM, first compound 0.0949 µM): 45.7%
viability, T/C (second compound 1 µM, first compound 0.3 µM): 36.7%
viability, T/C (second compound 3.16 µM, first compound 0.000949 µM): 69.1%
viability, T/C (second compound 3.16 µM, first compound 0.003 µM): 73.8%
viability, T/C (second compound 3.16 µM, first compound 0.00949 µM): 62.5%
viability, T/C (second compound 3.16 µM, first compound 0.03 µM): 52%
viability, T/C (second compound 3.16 µM, first compound 0.0949 µM): 41.8%
viability, T/C (second compound 3.16 µM, first compound 0.3 µM): 31.9%
viability, T/C (second compound 10 µM, first compound 0.000949 µM): 60.4%
viability, T/C (second compound 10 µM, first compound 0.003 µM): 51.1%
viability, T/C (second compound 10 µM, first compound 0.00949 µM): 50.7%
viability, T/C (second compound 10 µM, first compound 0.03 µM): 46.3%
viability, T/C (second compound 10 µM, first compound 0.0949 µM): 34.7%
viability, T/C (second compound 10 µM, first compound 0.3 µM): 30.3%
